# ChEMBL document CHEMBL2407088, “Frenolicins C-G, pyranonaphthoquinones from Streptomyces sp. RM-4-15” (J Nat Prod, 2013)
# System: A549
# Assay: Cytotoxicity against human A549 cells after 2 days by resazurin reduction assay
# Details: A549, 48 h
row,SMILES,IC50 [µM]
1,CCC[C@H]1O[C@H](CC(=O)O)C[C@]2(SC[C@H](NC(C)=O)C(=O)O)C(=O)c3cccc(O)c3C(=O)[C@@]12O,> 80
2,CCC[C@H]1O[C@H](CC(=O)O)C[C@@]2(O)C(=O)c3cccc(O)c3C(=O)[C@@]12O,> 80
3,CCC[C@H]1O[C@H](CC(=O)O)C[C@]2(O)C(=O)c3cccc(O)c3C(=O)[C@@]12O,> 80
4,CCC[C@H]1O[C@H](CC(=O)O)C[C@]23O[C@]12C(=O)c1c(O)cccc1[C@@H]3O,> 80
5,CCC[C@H]1O[C@H](CC(=O)OC)[C@H](O)C2=C1C(=O)c1c(O)cccc1C2=O,0.35
6,CCC[C@H]1O[C@H](CC(=O)O)C[C@@H]2C(=O)c3cccc(O)c3C(=O)[C@]21O,> 80
7,CCC[C@H]1O[C@H](CC(=O)O)CC2=C1C(=O)c1c(O)cccc1C2=O [DEOXYFRENOLICIN],1.07
8,CCC[C@H]1O[C@@H]2CC(=O)O[C@@H]2C2=C1C(=O)c1c(O)cccc1C2=O [FRENOLICIN B],0.28
9,CCC[C@H]1O[C@H](CC(=O)O)C[C@]23O[C@]12C(=O)c1c(O)cccc1C3=O [FRENOLICIN],5.77
